Laboratory results reported in PMC10545790.
Converted amounts (≈) assume the structure as drawn. “And” between values parts separate entries of the source, which are not always exact repeats. Equal values may be shown once. “Also recorded” adds a separate entry of the source. Read-outs that look alike come from different tables or passages of the source. Blank lines part the entries; values can stand above or below the compound they belong to.

Tests used:
[1] = Determination of pKa values (potentiometric titration); format: physicochemical; details: methanol-water (1:4) solution of NaCl; titration method; potentiometric acid-base titration at 25 °C in methanol-water (1:4), 150 mM NaCl; read-out: pKa (exp.)
Experimental: Data is obtained by the titration method. Para-methyl benzoic acid (83) is used as a reference. TEXT PRINTED IN THE PICTURE: 83: pKa (exp.): 4.5 ± 0.1 | 84: pKa (exp.): 5.6 ± 0.1 | 47: pKa (exp.): 4.4 ± 0.1 | 54: pKa (exp.): 4.1 ± 0.1 […]
Determination of pKa values
The tendency of a compound to donate proton is measured as its acid ionization constant (dissociation constant), or Ka. A more practical scale of representing acidity is pKa which is the negative logarithm of the Ka (pKa = -log Ka). pKa of a test article is determined by pH-metric method based on potentiometric acid-base titration at 25 °C. The test compounds are dissolved in acidified methanol-water (1:4) solution of NaCl (150 mM, pH 2) and slowly titrated with 0.3 M sodium hydroxide methanol-water (1:4) solution, while recording pH of the solution as a function of NaOH volume used during the titration (construction of the titration curve). Titration of acidified NaCl solution in absence of any compounds is used for blank plotting.5-8 Buffering capacity is calculated in each point of titration curve as the ratio of the NaOH flow (constant) to the pH rise velocity. The pKa value is determined from resulting plot of buffering capacity versus pH as the maximum of buffering capacity. pH-metric method allows to measure pKas in the range of approximately between 2 and 12. […]
meter, pHi®510 (Beckman Coulter, Canada; Cat# A58734). Data analysis was done using GraphPad […]
Sodium hydroxide (Enamine, Ukraine; CAS # 1310-73-2)
Sodium chloride BioXtra, ≥99.5% (AT) (Sigma-Aldrich, USA; Cat # S7653)
Hydrochloric acid (Enamine, Ukraine; CAS # 7647-01-0)
Disposable pipette tips (Eppendorf, German; Matrix and Finntip, Thermo, USA) Polypropylene graduated conical tubes, 50 mL (Kartell, Italy; Cat. # 84002) Polypropylene syringe (10 mL) with tubing (Hemoplast, Ukraine) […]
pH-meter, pHi®510 (Beckman Coulter, Canada; Cat# A58734)
Multichannel Electronic Pipettes 5-50 µL, 10-1000 µL (Thermo, USA)
Magnetic stirrer standard unit (IKA, USA)
Syringe Driver Mdl 100 (KDScientific, USA)

[2] = Thermal and chemical stability; format: physicochemical; details: for chemical stability in acid: aq. 1 M HCl; for chemical stability in acid / chemical stability in base / stability on storage: room temperature; for chemical stability in acid / chemical stability in base: 1 h; for chemical stability in base: aq. 1 M NaOH; for thermal stability: heating at 100 °C for five minutes; for stability on storage: in air, closed vials, one year, 1H NMR
Description: We also examined the thermal and chemical stability of the synthesized 2-oxabicyclo[2.2.2]octanes. As representative examples, we selected three molecules: isomeric acids 47, 54, and amine 52. All 2-oxabicyclo[2.2.2]octanes were crystalline solids that were stable in air. We stored them in stock at room temperature in closed vials and observed no changes according to ^1H NMR after one year. […] Treatment of the selected 2-oxabicyclo[2.2.2]octanes with aq. 1 M HCl, or aq.

[3] = Kinetic solubility in phosphate-buffered saline, pH 7.4
[4] = physchem; details: pH 7.4, logD (7.4): experimental distribution coefficient in n-octanol/phosphate-buffered saline
[5] = target: ABL1 kinase (Homo sapiens, UniProt P00519); details: for inhibitory effect on the catalytic activity of ABL1 kinase (in words): ADP-Glo Kinase Assay, 12 concentration points; for Luminescence, Raw Data (LUM): ADP-Glo
ABL1 kinase, sequence (P00519 whole entry): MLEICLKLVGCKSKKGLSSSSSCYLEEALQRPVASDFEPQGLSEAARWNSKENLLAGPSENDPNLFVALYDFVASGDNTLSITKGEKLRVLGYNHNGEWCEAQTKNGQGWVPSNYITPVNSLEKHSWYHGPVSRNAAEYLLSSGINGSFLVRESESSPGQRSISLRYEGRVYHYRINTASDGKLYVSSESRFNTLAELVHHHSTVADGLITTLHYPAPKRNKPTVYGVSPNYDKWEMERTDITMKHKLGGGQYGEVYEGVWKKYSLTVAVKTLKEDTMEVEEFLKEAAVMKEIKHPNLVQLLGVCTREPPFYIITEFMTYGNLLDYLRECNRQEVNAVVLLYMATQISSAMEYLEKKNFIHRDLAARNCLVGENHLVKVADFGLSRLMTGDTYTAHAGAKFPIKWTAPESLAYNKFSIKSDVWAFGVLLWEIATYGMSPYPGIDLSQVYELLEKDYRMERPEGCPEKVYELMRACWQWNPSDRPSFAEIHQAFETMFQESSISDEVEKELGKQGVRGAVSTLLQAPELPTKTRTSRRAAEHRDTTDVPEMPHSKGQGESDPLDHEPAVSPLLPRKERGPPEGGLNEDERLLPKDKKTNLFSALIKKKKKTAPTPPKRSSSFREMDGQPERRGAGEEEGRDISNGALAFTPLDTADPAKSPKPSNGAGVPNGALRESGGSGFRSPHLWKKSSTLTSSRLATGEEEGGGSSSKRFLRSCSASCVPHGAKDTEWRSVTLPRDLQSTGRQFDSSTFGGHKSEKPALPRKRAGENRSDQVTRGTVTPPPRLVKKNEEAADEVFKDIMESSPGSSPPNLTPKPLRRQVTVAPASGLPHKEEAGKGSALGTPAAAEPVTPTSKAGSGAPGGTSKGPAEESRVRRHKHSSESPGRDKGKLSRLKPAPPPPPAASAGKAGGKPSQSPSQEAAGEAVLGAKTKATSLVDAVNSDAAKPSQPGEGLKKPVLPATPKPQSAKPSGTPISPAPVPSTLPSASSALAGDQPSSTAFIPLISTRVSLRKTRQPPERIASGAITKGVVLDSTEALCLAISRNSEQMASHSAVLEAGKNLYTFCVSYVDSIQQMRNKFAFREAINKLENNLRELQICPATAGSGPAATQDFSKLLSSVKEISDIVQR

[6] = Metabolic stability in human liver microsomes; details: both, human, liver microsomes (pooled); for k el at 2 µM / microsomal CLint at 2 µM: pH 7.4; for remaining at 0.25 h, 2 µM: 15 min; for half-life at 2 µM: pH 7.4, t1/2: half-time of a metabolic decomposition, human liver microsomes, 2 μM compound, NADPH, 37 °C
[7] = tested on: human liver microsomes; experiment: Metabolic stability in human liver microsomes; details: human liver microsomes; for t1/2: half-time of a metabolic decomposition: 2 μM compound, NADPH, 37 °C
[8] = tested on: human liver microsomes; details: both, 2 µM, pH 7.4
[9] = 25 °C, pH 7.4, aqueous buffer, kinetic from dmso stock
[10] = 1st run, plate ABL1_CpdsTitr_Read1, single wells, compound 15 nM
[11] = 1st run, plate ABL1_CpdsTitr_Read1, single wells, compound 29 nM
[12] = 1st run, plate ABL1_CpdsTitr_Read1, single wells, compound 59 nM
[13] = 1st run, plate ABL1_CpdsTitr_Read1, single wells, compound 117 nM
[14] = 1st run, plate ABL1_CpdsTitr_Read1, single wells, compound 234 nM
[15] = 1st run, plate ABL1_CpdsTitr_Read1, single wells, compound 469 nM
[16] = 1st run, plate ABL1_CpdsTitr_Read1, single wells, compound 938 nM
[17] = 1st run, plate ABL1_CpdsTitr_Read1, single wells, compound 1500 nM
[18] = 1st run, plate ABL1_CpdsTitr_Read1, single wells, compound 1875 nM
[19] = 1st run, plate ABL1_CpdsTitr_Read1, single wells, compound 3000 nM
[20] = 1st run, plate ABL1_CpdsTitr_Read1, single wells, compound 3750 nM
[21] = 1st run, plate ABL1_CpdsTitr_Read1, single wells, compound 7500 nM
[22] = 2nd run, plate ABL1_CpdsTitr2_Read1, single wells, compound 15 nM
[23] = 2nd run, plate ABL1_CpdsTitr2_Read1, single wells, compound 59 nM
[24] = 2nd run, plate ABL1_CpdsTitr2_Read1, single wells, compound 117 nM
[25] = 2nd run, plate ABL1_CpdsTitr2_Read1, single wells, compound 234 nM
[26] = 2nd run, plate ABL1_CpdsTitr2_Read1, single wells, compound 469 nM
[27] = 2nd run, plate ABL1_CpdsTitr2_Read1, single wells, compound 938 nM
[28] = 2nd run, plate ABL1_CpdsTitr2_Read1, single wells, compound 1500 nM
[29] = 2nd run, plate ABL1_CpdsTitr2_Read1, single wells, compound 1875 nM
[30] = 2nd run, plate ABL1_CpdsTitr2_Read1, single wells, compound 3000 nM
[31] = 2nd run, plate ABL1_CpdsTitr2_Read1, single wells, compound 3750 nM
[32] = 2nd run, plate ABL1_CpdsTitr2_Read1, single wells, compound 7500 nM
[33] = pH 7.4, % Remaining without cofactor, Mean of 2, human liver microsomes, NADPH-cofactor system substituted with phosphate buffer
[34] = pH 7.4, % Remaining, Mean of 2, human liver microsomes with NADPH

SMILES: CC12CCC(C(=O)O)(CC1)CC2 [Compound 84, reference compound]
pKa [1]: 5.6

SMILES: CC12CCC(C(=O)O)(CC1)CO2 [Compound 47]
chemical stability in acid [2]: no decomposition
chemical stability in base [2]: no decomposition
thermal stability [2]: remained stable
stability on storage [2]: no changes
pKa [1]: 4.4

SMILES: Cc1ccc(C(=O)O)cc1 [Compound 83, para-methyl benzoic acid, reference compound]
pKa [1]: 4.5

SMILES: CC12CCC(C(=O)O)(CC1)OC2 [Compound 54]
chemical stability in acid [2]: no decomposition
chemical stability in base [2]: no decomposition
thermal stability [2]: remained stable
stability on storage [2]: no changes
pKa [1]: 4.1

Continued, in another order:

solubility kinetic at 2 h [3, 9]: 113 µM (≈ 59.4 µg/mL)
logD [4]: 2.7
Luminescence, Raw Data (LUM) [5, 10]: 2281 and 2169
Luminescence, Raw Data (LUM) [5, 11]: 2495 and 2464
Luminescence, Raw Data (LUM) [5, 12]: 2134 and 2384
Luminescence, Raw Data (LUM) [5, 13]: 2291 and 2227
Luminescence, Raw Data (LUM) [5, 14]: 1059 and 1099
Luminescence, Raw Data (LUM) [5, 15]: 1247 and 1531
Luminescence, Raw Data (LUM) [5, 16]: 1347 and 1294
Luminescence, Raw Data (LUM) [5, 17]: 981 and 1352
Luminescence, Raw Data (LUM) [5, 18]: 1222 and 1248
Luminescence, Raw Data (LUM) [5, 19]: 1174 and 1245
Luminescence, Raw Data (LUM) [5, 20]: 1755 and 1091
Luminescence, Raw Data (LUM) [5, 21]: 1238 and 1673
Luminescence, Raw Data (LUM) [5, 22]: 4011 and 3702 and 3072 and 2792
Luminescence, Raw Data (LUM) [5, 23]: 6124 and 5895 and 5335 and 5300
Luminescence, Raw Data (LUM) [5, 24]: 6960 and 7005 and 6427 and 6079
Luminescence, Raw Data (LUM) [5, 25]: 5660 and 5387 and 5152 and 5142
Luminescence, Raw Data (LUM) [5, 26]: 5734 and 5920 and 6125 and 5475
Luminescence, Raw Data (LUM) [5, 27]: 6593 and 6264 and 5955 and 5731
Luminescence, Raw Data (LUM) [5, 28]: 5936 and 5810 and 4992 and 5316
Luminescence, Raw Data (LUM) [5, 29]: 6498 and 6064 and 6232 and 5788
Luminescence, Raw Data (LUM) [5, 30]: 4358 and 4452 and 3565 and 4254
Luminescence, Raw Data (LUM) [5, 31]: 5848 and 6030 and 5487 and 5693
Luminescence, Raw Data (LUM) [5, 32]: 5593 and 5845 and 6001 and 5417
k el at 2 µM [6]: ~0.0001 s⁻¹
microsomal CLint at 2 µM [6]: 16 µL/min/mg
remaining at 40 min, 2 µM [6, 33]: 106%
remaining at 7 min, 2 µM [6, 34]: 100%
remaining at 0.25 h, 2 µM [6, 34]: 96%
remaining at 25 min, 2 µM [6, 34]: 81%
remaining at 40 min, 2 µM [6, 34]: 81%
half-life at 2 µM [6]: 107 min
CLint [7]: 16
t1/2: half-time of a metabolic decomposition [7]: ~107.1 min
SMILES: Cc1ccc(NC(=O)C23CCC(CN4CCN(C)CC4)(CC2)CC3)cc1Nc1nccc(-c2cccnc2)n1 [Compound 86]
inhibitory effect on the catalytic activity of ABL1 kinase (in words) [5]: did not observe any significant inhibitory effect; also recorded: inactive

solubility kinetic at 2 h [3, 9]: 389 µM (≈ 205 µg/mL)
logD [4]: 1.8
Luminescence, Raw Data (LUM) [5, 10]: 1058 and 1113 and 1791 and 1922
Luminescence, Raw Data (LUM) [5, 11]: 1154 and 1300 and 1938 and 1968
Luminescence, Raw Data (LUM) [5, 12]: 1819 and 1993 and 1840 and 1873
Luminescence, Raw Data (LUM) [5, 13]: 2012 and 2091 and 2063 and 1940
Luminescence, Raw Data (LUM) [5, 14]: 1243 and 1296 and 1230 and 1333
Luminescence, Raw Data (LUM) [5, 15]: 1542 and 1412 and 1342 and 1622
Luminescence, Raw Data (LUM) [5, 16]: 1188 and 1448 and 1337 and 1335
Luminescence, Raw Data (LUM) [5, 17]: 1805 and 977 and 1232 and 1070
Luminescence, Raw Data (LUM) [5, 18]: 1156 and 1302 and 1289 and 1256
Luminescence, Raw Data (LUM) [5, 19]: 1327 and 1543 and 1534 and 1388
Luminescence, Raw Data (LUM) [5, 20]: 1381 and 1311 and 1134
Luminescence, Raw Data (LUM) [5, 21]: 1269 and 1270 and 1321 and 1071
Luminescence, Raw Data (LUM) [5, 22]: 6198 and 6465 and 5917 and 6372
Luminescence, Raw Data (LUM) ([5]; 2nd run, plate ABL1_CpdsTitr2_Read1, single wells, compound 29 nM): 7090 and 6257 and 6692 and 6143
Luminescence, Raw Data (LUM) [5, 23]: 6364 and 6701 and 5655 and 6486
Luminescence, Raw Data (LUM) [5, 24]: 6190 and 6555 and 5494 and 6585
Luminescence, Raw Data (LUM) [5, 25]: 5219 and 5282 and 5107 and 4913
Luminescence, Raw Data (LUM) [5, 26]: 6324 and 5692 and 5791 and 5812
Luminescence, Raw Data (LUM) [5, 27]: 6138 and 6238 and 6011 and 5496
Luminescence, Raw Data (LUM) [5, 28]: 5294 and 5538 and 5113 and 5062
Luminescence, Raw Data (LUM) [5, 29]: 6881 and 6876 and 6366 and 6488
Luminescence, Raw Data (LUM) [5, 30]: 4805 and 5280 and 4474 and 4682
Luminescence, Raw Data (LUM) [5, 31]: 6509 and 5880 and 6068 and 5810
Luminescence, Raw Data (LUM) [5, 32]: 6480 and 6469 and 6139 and 5760
k el at 2 µM [6]: 0.000133 s⁻¹
microsomal CLint at 2 µM [6]: 19 µL/min/mg
remaining at 40 min, 2 µM [6, 33]: 118%
remaining at 7 min, 2 µM [6, 34]: 101%
remaining at 0.25 h, 2 µM [6, 34]: 98%
remaining at 25 min, 2 µM [6, 34]: 90%
remaining at 40 min, 2 µM [6, 34]: 73%
half-life at 2 µM [6]: 87 min
CLint [7]: 19
t1/2: half-time of a metabolic decomposition [7]: 87.2 min
SMILES: Cc1ccc(NC(=O)C23CCC(CN4CCN(C)CC4)(CC2)OC3)cc1Nc1nccc(-c2cccnc2)n1 [Compound 85]
inhibitory effect on the catalytic activity of ABL1 kinase (in words) [5]: did not observe any significant inhibitory effect; also recorded: inactive

solubility kinetic at 2 h ([3]; pH 7.4): 126 µM (≈ 37 µg/mL)
SMILES: Cc1nccn1CC1CCc2c(c3ccccc3n2C)C1=O (centres unmarked) [Ondansetron, reference compound]

kel (elimination constant) [8]: 0.119 min⁻¹
% Remaining, Mean of 2 ([8]; microsomes, 7 min): 49%
% Remaining without cofactor, Mean of 2 ([8]; microsomes, 40 min): 91%
SMILES: O=C(O)Cc1ccccc1Nc1c(Cl)cccc1Cl [Diclofenac]
